# Measured values as given in the supplement of paper PMC10307832.
# Tests used:
# Experiment in all cases: relative viability (nuclei count vs DMSO), 5 days (fraction); higher = more cells survive
# CAL-12T = system: CAL-12T
# How it was run: (§1)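 Each reported value is a median over duplicate plates. It expresses relative viability: treated-well nuclei count divided by vehicle-well nuclei count. Lung cancer cell lines in 1536-well plates were dosed by pin tool a day after seeding, alone with one drug or with a fixed anchor-drug dose plus five library-drug doses (not always all listed) in √10 steps, and nuclei were counted after 5 days.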
# NCI-H1975 = system: NCI-H1975
# How it was run: as §1
# NCI-H520 = system: NCI-H520
# How it was run: as §1
# NCI-H596 = system: NCI-H596
# How it was run: as §1
# LOU-NH91 = system: LOU-NH91
# How it was run: as §1
# LCLC-103H = system: LCLC-103H
# How it was run: as §1
# NCI-H2085 = system: NCI-H2085
# How it was run: as §1
# NCI-H647 = system: NCI-H647
# How it was run: as §1
# NCI-H838 = system: NCI-H838
# How it was run: as §1
# NCI-H1734 = system: NCI-H1734
# How it was run: as §1
# NCI-H2126 = system: NCI-H2126
# How it was run: as §1
# BEN = system: BEN
# How it was run: as §1
# RERF-LC-KJ = system: RERF-LC-KJ
# How it was run: as §1
# SW 900 = system: SW 900
# How it was run: as §1
# NCI-H460 = system: NCI-H460
# How it was run: as §1
# NCI-H1944 = system: NCI-H1944
# How it was run: as §1
# NCI-H1666 = system: NCI-H1666
# How it was run: as §1
# NCI-H661 = system: NCI-H661
# How it was run: as §1
# NCI-H1651 = system: NCI-H1651
# How it was run: as §1
# A-427 = system: A-427
# How it was run: as §1
# HARA = system: HARA
# How it was run: as §1
compound,measurement,setting,value
CCNC(=O)c1noc(-c2cc(C(C)C)c(O)cc2O)c1-c1ccc(CN2CCOCC2)cc1 [Luminespib] + Nc1nc2[nH]cc(CCc3ccc(C(=O)N[C@@H](CCC(=O)O)C(=O)O)cc3)c2c(=O)[nH]1 [Pemetrexed] (partner 0.2 µM),relative viability,CAL-12T; first compound 0.002 µM,1.23
same,relative viability,CAL-12T; first compound 0.006325 µM,0.988
same,relative viability,CAL-12T; first compound 0.02 µM,0.906
same,relative viability,CAL-12T; first compound 0.06325 µM,0.146
same,relative viability,CAL-12T; first compound 0.2 µM,0.124
same,relative viability,NCI-H1975; first compound 0.002 µM,0.315
same,relative viability,NCI-H1975; first compound 0.006325 µM,0.307
same,relative viability,NCI-H1975; first compound 0.02 µM,0.34
same,relative viability,NCI-H1975; first compound 0.06325 µM,0.137
same,relative viability,NCI-H1975; first compound 0.2 µM,0.153
same,relative viability,NCI-H520; first compound 0.002 µM,0.691
same,relative viability,NCI-H520; first compound 0.006325 µM,0.699
same,relative viability,NCI-H520; first compound 0.02 µM,0.792
same,relative viability,NCI-H520; first compound 0.06325 µM,0.135
same,relative viability,NCI-H520; first compound 0.2 µM,0.13
same,relative viability,NCI-H596; first compound 0.002 µM,0.526
same,relative viability,NCI-H596; first compound 0.006325 µM,0.493
same,relative viability,NCI-H596; first compound 0.02 µM,0.548
same,relative viability,NCI-H596; first compound 0.06325 µM,0.518
same,relative viability,NCI-H596; first compound 0.2 µM,0.528
same,relative viability,LOU-NH91; first compound 0.002 µM,0.426
same,relative viability,LOU-NH91; first compound 0.006325 µM,0.36
same,relative viability,LOU-NH91; first compound 0.02 µM,0.539
same,relative viability,LOU-NH91; first compound 0.06325 µM,0.339
same,relative viability,LOU-NH91; first compound 0.2 µM,0.324
same,relative viability,LCLC-103H; first compound 0.002 µM,0.441
same,relative viability,LCLC-103H; first compound 0.006325 µM,0.445
same,relative viability,LCLC-103H; first compound 0.02 µM,0.535
same,relative viability,LCLC-103H; first compound 0.06325 µM,0.486
same,relative viability,LCLC-103H; first compound 0.2 µM,0.472
same,relative viability,NCI-H2085; first compound 0.002 µM,0.908
same,relative viability,NCI-H2085; first compound 0.006325 µM,0.893
same,relative viability,NCI-H2085; first compound 0.02 µM,0.698
same,relative viability,NCI-H2085; first compound 0.06325 µM,0.309
same,relative viability,NCI-H2085; first compound 0.2 µM,0.261
same,relative viability,NCI-H647; first compound 0.002 µM,0.202
same,relative viability,NCI-H647; first compound 0.006325 µM,0.189
same,relative viability,NCI-H647; first compound 0.02 µM,0.193
same,relative viability,NCI-H647; first compound 0.06325 µM,0.106
same,relative viability,NCI-H647; first compound 0.2 µM,0.0832
same,relative viability,NCI-H838; first compound 0.002 µM,0.265
same,relative viability,NCI-H838; first compound 0.006325 µM,0.256
same,relative viability,NCI-H838; first compound 0.02 µM,0.284
same,relative viability,NCI-H838; first compound 0.06325 µM,0.141
same,relative viability,NCI-H838; first compound 0.2 µM,0.177
same,relative viability,NCI-H1734; first compound 0.002 µM,0.475
same,relative viability,NCI-H1734; first compound 0.006325 µM,0.406
same,relative viability,NCI-H1734; first compound 0.02 µM,0.428
same,relative viability,NCI-H1734; first compound 0.06325 µM,0.159
same,relative viability,NCI-H1734; first compound 0.2 µM,0.143
same,relative viability,NCI-H2126; first compound 0.002 µM,0.705
same,relative viability,NCI-H2126; first compound 0.006325 µM,0.626
same,relative viability,NCI-H2126; first compound 0.06325 µM,0.479
same,relative viability,NCI-H2126; first compound 0.2 µM,0.181
same,relative viability,BEN; first compound 0.002 µM,0.805
same,relative viability,BEN; first compound 0.006325 µM,0.584
same,relative viability,BEN; first compound 0.02 µM,0.463
same,relative viability,BEN; first compound 0.06325 µM,0.5
same,relative viability,BEN; first compound 0.2 µM,0.252
same,relative viability,RERF-LC-KJ; first compound 0.002 µM,0.474
same,relative viability,RERF-LC-KJ; first compound 0.006325 µM,0.449
same,relative viability,RERF-LC-KJ; first compound 0.02 µM,0.462
same,relative viability,RERF-LC-KJ; first compound 0.06325 µM,0.287
same,relative viability,RERF-LC-KJ; first compound 0.2 µM,0.219
same,relative viability,SW 900; first compound 0.002 µM,0.492
same,relative viability,SW 900; first compound 0.006325 µM,0.512
same,relative viability,SW 900; first compound 0.02 µM,0.427
same,relative viability,SW 900; first compound 0.06325 µM,0.133
same,relative viability,SW 900; first compound 0.2 µM,0.146
same,relative viability,NCI-H460; first compound 0.002 µM,0.0608
same,relative viability,NCI-H460; first compound 0.006325 µM,0.0558
same,relative viability,NCI-H460; first compound 0.02 µM,0.0687
same,relative viability,NCI-H460; first compound 0.06325 µM,0.0359
same,relative viability,NCI-H460; first compound 0.2 µM,0.0287
same,relative viability,NCI-H1944; first compound 0.002 µM,0.636
same,relative viability,NCI-H1944; first compound 0.006325 µM,0.602
same,relative viability,NCI-H1944; first compound 0.02 µM,0.477
same,relative viability,NCI-H1944; first compound 0.06325 µM,0.258
same,relative viability,NCI-H1944; first compound 0.2 µM,0.149
same,relative viability,NCI-H1666; first compound 0.002 µM,0.876
same,relative viability,NCI-H1666; first compound 0.006325 µM,0.799
same,relative viability,NCI-H1666; first compound 0.02 µM,0.908
same,relative viability,NCI-H1666; first compound 0.06325 µM,0.833
same,relative viability,NCI-H1666; first compound 0.2 µM,0.911
same,relative viability,NCI-H661; first compound 0.002 µM,0.921
same,relative viability,NCI-H661; first compound 0.006325 µM,0.863
same,relative viability,NCI-H661; first compound 0.02 µM,0.966
same,relative viability,NCI-H661; first compound 0.06325 µM,0.651
same,relative viability,NCI-H661; first compound 0.2 µM,0.318
same,relative viability,NCI-H1651; first compound 0.002 µM,0.555
same,relative viability,NCI-H1651; first compound 0.006325 µM,0.536
same,relative viability,NCI-H1651; first compound 0.02 µM,0.474
same,relative viability,NCI-H1651; first compound 0.06325 µM,0.646
same,relative viability,NCI-H1651; first compound 0.2 µM,0.443
same,relative viability,A-427; first compound 0.002 µM,0.958
same,relative viability,A-427; first compound 0.006325 µM,0.25
same,relative viability,A-427; first compound 0.02 µM,0.812
same,relative viability,A-427; first compound 0.06325 µM,0.495
same,relative viability,A-427; first compound 0.2 µM,0.256
same,relative viability,HARA; first compound 0.002 µM,0.253
same,relative viability,HARA; first compound 0.006325 µM,0.24
same,relative viability,HARA; first compound 0.02 µM,0.273
same,relative viability,HARA; first compound 0.06325 µM,0.172
same,relative viability,HARA; first compound 0.2 µM,0.135
